Source: patent US20110039812A1, “N-ALKYLCARBONYL-D-AMINO HYDROXYALKYL ESTER COMPOUNDS AND THEIR USE” (priority 2006, published 2011)

What was measured:
skin above the upper lip = assay: Cooling sensation bioassay: ointment applied to skin above the upper lip; assay type: in vivo, human
From the text: A reliable place for topical application is the skin above the upper lip (above the vermilion border of the lips), on the philtrum, lateral to the philtrum until the nasolabial folds, and on the lower nostrils (subnasale). This part of the face is known to be densely innervated with cold receptors, second only to the surfaces of the eyeball and anogenitalia. A second location is on or below the malar eminence (cheekbone). The skin above the cheekbone is thicker than above the lips, and therefore has a higher threshold for activation. At both loci, tingling, cool and cold sensations in the skin may be experienced and rated for time of onset and intensity.
The intensity of the subjective skin sensation is rated as 0, 1, 2 or 3 with 0 as no change, 1 as slight coolness, cold, or tingling, 2 as clear-cut signal of coolness, cold, or tingling, and 3 as robust cooling or cold. The intervals for recording sensations are 5 to 10 minutes, until two successive zeroes are obtained. The results (shown in FIG. 1) are averaged values of 4 to 6 separate trials in the same individual. The data are plotted using SigmaPlot (Systat Software, Point Richmond Calif.) and a smoothing function with a negative eponential was used for analysis and statistical fit of the results. […]

oral cavity = assay: Oral cavity test of tablets placed in the back of the mouth; assay type: in vivo, human
Procedure: The NACHE were also tested in the oral cavity using these methods: a) placement of 2 mg of the crystalline chemical on the dorsal surface of the tongue, b) incorporation of 2 mg of NACHE into a rapidly-distintegrating tablet of 60 mg weight, and placement of the tablet on the caudal-dorsal surface of the tongue, c) placement of a 0.3 mL aliquot of a 5 mg/mL solution of a NACHE in a 50% ethanol-distilled water solution, and d) delivery of a 5 mg/mL solution of a NACHE in a 50% ethanol-distilled water solution into the oral cavity using a hand-activated mouth spray dispenser. The tests in the oral cavity were important because many cooling agents used in confectionery and comestibles have disagreeable tastes of bitterness, harshness or burning qualities that limit their utility in such items as candy, mints, mouthwashes, mouth fresheners, and cough syrups.
Tablets of CPS-154 were prepared. To weighed samples of about 200 mg of CPS-154 was added varying amounts of Ludipress® (BASF, Germany) to give CPS-154 concentrations of 2.5, 3. 5, 10 and 10% by wt. The two ingredients were then thoroughly mixed in a mortar and pestle. To this mixture when then added 5 to 7 mL of 10% ethanol −90% distilled water solution. Using an eye dropper or a pipette, fixed volumes of the solution was placed on wax paper and dried under a heat source. The tablets were then sized and weighed.
Using the above formulation methods, three doses of 1, 2 and 4 mg per application were examined. […] The onset effect was usually within 30 seconds of application. […] Also, the effects of menthol were short-lived, on the order 8 to 12 minutes, versus a 20 to 30 minute period or longer.

cough [1] = assay: Powder on the tongue of two cigar smokers with cough; assay type: in vivo, human
From the text: Two males, were inveterate cigar smokers consuming 3 to 5 cigars per day. They both had frequent bouts of dry, non-productive, hacking coughs. At night, there were episodes of insomnia characterized by difficulties in breathing, an oppressive pressure on the chest and throat, and subsequent awakening with sensations of choking. During the day, a frequent and persistent sensation was that of tickling, irritative feelings in the back of the throat that led to coughing.
In 10 trials per subject, 2 mg of 92% pure powder of CPS-154 was placed on the mid-portion of the tongue of these two subjects. Both subjects reported relief from the desire to cough within 1 minute after application. Sensations of robust coolness in the back of the throat was noted and lasted for 15 to 20 minutes. Applications of similar amounts of powdered sugar were not effective, but the placebo could be clearly distinguished from the active compound because of the absence of cooling sensations.

[2] = test system: asthmatic coughing attacks; assay: Tablets as needed in a subject with asthma; assay type: in vivo, human
From the text: A person with a documented 31-year history of asthma attacks volunteered to test one of the compounds of Formula 1. They were extremely sensitive to agents such as tobacco smoke, dust, pollen, odors, down/woolen materials, house cleansing products, pets, and sudden change of air temperature and reacted with violent coughing, mucus secretions, wheezing, choking, and shortness of breath. At the time of this trial, they were taking these medications for their condition: theophylline, Allegra®, Advair®, Intal®, and Singulair®. They were given 20 tablets of CPS-154, synthesized as described in Example 3, and instructed to take one on an as-needed basis.

viral cough = assay: Tablets as needed in a subject with viral cough; assay type: in vivo, human; conditions: 2.0 mg tablets as needed
Procedure: A person has severe allergies and also developed a cough after a cruise trip overseas. Upon visit to a physician, they were diagnosed with a “viral cough” and prescribed codeine in a syrup. They volunteered to try CPS-154 tablets and was supplied with 15 tablets stored in a flip top plastic box, each containing 2.0 mg of CPS-154, in a 4% wt/wt lactose matrix (Ludipress®). The subject was instructed to take one tablet on an as-needed basis, with a preferred interval of 3 to 4 hours between tablets.

cough [3] = assay: Orally-disintegrating tablet in the back of the mouth, anti-tussive action; assay type: in vivo; conditions: 40 to 60 mg Ludipress tablet containing 1 to 5 mg
From the text: Especially favored in this invention is the formulation of the NACHE of Formula 1, into an orally-disintegrating tablet.

[4] = test system: dorsal surface of the tongue; conditions: average for 6 subjects, after 30 seconds; cited from earlier work

## CC(C)[C@@H]1CC[C@@H](C)C[C@H]1C(=O)N[C@H](C)C(=O)OCCCO [CPS-154, (R)-2-[((1R,2S,5R)-2-isopropyl-5-methyl-cyclohexanecarbonyl)-amino]-propionic acid 3-hydroxy-propyl ester]
Skin above the upper lip; Aquaphor ointment 0.5 and 1% wt/vol, 50 to 80 mg
  duration of action of cooling on the skin of the upper lip: more than 1 hour
Skin above the upper lip; ointment on upper lip skin
  potency / cooling activity on the skin of the upper lip (comparison, FIG. 1): comparable to its alkyl ester analog, CPS-369
Oral cavity; Ludipress tablets
  dissolution of tablets in the back of the mouth: dissolved within a matter of seconds
Oral cavity; tablets
  activity in the oral cavity, D-analog versus L-equivalent: clearly more active than the L-equivalent
Oral cavity; tablets, 2 or 4 mg dose
  onset of cooling effect after application: ≤ 30 s
  quality and site of cooling sensations: pleasant and robust cooling sensations on the tongue, extending down to the back of throat
Cough [1]; 2 mg of 92% pure powder on mid-portion of the tongue, 2 subjects
  time to relief from the desire to cough: ≤ 1 min
Cough [1]; after 8 applications, continued smoking of cigars
  time the desire to cough was removed: at least 3 days
[2]; continued use of tablets as needed
  recurrence of asthmatic coughing attacks: have not recurred with any severity for six months
[2]; one tablet, asthma subject
  side-effects: did not sense any build up of sputum or other side-effects
Viral cough
  effect on cough severity: less severe
Cough [3]
  anti-tussive action: robust anti-tussive action for several hours

## CC1CCC(C(C)C)C(O)C1 (single isomer, unassigned; (-)) [Menthol, (−)-menthol, reference compound]
Oral cavity; tablets, 2 or 4 mg dose
  quality and site of cooling sensations: cooling primarily in the nasopharynx and less in the oral cavity
[4]
  Threshold (amount producing cooling sensations on the tongue), average: 0.25 µg
